Assay results taken from article PMC3961306, “Comparison of the Cancer Gene Targeting and Biochemical Selectivities of All Targeted Kinase Inhibitors Approved for Clinical Use” (PLoS ONE, 2014).

Assays:
Experiment in all cases: Kinase profiling in a biochemical assay panel (mobility shift assays and ELISA), %-inhibition at 1 μM; selectivity entropy
[1] = molecular target: panel of more than 300 wild-type and mutant kinases (313 kinase panel) (Homo sapiens, UniProt P16234)
[2] = molecular target: panel of more than 300 wild-type and mutant kinases (313 kinase panel) (Homo sapiens, UniProt Q9H0K1)
panel of more than 300 wild-type and mutant kinases (313 kinase panel) (Homo sapiens, UniProt Q9H0K1), sequence (Q9H0K1 whole entry, change not shown): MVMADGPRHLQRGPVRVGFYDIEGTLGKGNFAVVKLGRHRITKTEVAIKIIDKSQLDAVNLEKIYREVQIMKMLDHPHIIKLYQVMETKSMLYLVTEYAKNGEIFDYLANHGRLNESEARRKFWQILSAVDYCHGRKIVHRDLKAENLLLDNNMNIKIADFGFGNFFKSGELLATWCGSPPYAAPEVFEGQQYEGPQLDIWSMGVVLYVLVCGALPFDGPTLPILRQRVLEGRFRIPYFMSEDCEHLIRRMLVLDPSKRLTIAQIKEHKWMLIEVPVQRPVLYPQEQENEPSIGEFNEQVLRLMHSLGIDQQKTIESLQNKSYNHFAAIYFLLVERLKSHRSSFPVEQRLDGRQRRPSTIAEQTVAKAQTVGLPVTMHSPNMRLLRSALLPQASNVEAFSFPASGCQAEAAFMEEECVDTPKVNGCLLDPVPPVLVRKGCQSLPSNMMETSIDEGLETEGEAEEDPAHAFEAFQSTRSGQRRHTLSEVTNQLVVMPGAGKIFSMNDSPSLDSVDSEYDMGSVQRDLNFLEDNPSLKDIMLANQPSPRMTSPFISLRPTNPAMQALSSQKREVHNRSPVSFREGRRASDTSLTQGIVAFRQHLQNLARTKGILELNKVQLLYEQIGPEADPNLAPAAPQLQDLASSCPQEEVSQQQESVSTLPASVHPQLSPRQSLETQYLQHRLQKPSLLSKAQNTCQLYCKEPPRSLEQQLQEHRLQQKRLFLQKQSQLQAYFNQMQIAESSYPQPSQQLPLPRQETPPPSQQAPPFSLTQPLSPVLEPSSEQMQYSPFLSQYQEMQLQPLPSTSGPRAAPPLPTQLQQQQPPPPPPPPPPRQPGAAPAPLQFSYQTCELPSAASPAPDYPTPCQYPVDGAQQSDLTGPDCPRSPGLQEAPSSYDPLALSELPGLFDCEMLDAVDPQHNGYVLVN

[3] = molecular target: T1, panel of more than 300 wild-type and mutant kinases (313 kinase panel) (Homo sapiens, UniProt Q9HBY8)
T1 sequence (Q9HBY8 1-367): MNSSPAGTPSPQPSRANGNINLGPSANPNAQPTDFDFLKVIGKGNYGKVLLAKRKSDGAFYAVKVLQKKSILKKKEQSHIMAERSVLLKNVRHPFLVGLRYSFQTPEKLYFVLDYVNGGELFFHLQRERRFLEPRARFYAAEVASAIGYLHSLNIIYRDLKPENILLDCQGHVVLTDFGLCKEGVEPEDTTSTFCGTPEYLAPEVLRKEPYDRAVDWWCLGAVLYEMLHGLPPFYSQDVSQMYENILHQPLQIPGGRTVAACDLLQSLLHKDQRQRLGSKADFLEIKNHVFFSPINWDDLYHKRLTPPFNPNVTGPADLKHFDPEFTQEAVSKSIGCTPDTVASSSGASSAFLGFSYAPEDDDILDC

[4] = molecular target: panel of more than 300 wild-type and mutant kinases (313 kinase panel) (Homo sapiens, UniProt Q9P286)
panel of more than 300 wild-type and mutant kinases (313 kinase panel) (Homo sapiens, UniProt Q9P286), sequence (Q9P286 whole entry, change not shown): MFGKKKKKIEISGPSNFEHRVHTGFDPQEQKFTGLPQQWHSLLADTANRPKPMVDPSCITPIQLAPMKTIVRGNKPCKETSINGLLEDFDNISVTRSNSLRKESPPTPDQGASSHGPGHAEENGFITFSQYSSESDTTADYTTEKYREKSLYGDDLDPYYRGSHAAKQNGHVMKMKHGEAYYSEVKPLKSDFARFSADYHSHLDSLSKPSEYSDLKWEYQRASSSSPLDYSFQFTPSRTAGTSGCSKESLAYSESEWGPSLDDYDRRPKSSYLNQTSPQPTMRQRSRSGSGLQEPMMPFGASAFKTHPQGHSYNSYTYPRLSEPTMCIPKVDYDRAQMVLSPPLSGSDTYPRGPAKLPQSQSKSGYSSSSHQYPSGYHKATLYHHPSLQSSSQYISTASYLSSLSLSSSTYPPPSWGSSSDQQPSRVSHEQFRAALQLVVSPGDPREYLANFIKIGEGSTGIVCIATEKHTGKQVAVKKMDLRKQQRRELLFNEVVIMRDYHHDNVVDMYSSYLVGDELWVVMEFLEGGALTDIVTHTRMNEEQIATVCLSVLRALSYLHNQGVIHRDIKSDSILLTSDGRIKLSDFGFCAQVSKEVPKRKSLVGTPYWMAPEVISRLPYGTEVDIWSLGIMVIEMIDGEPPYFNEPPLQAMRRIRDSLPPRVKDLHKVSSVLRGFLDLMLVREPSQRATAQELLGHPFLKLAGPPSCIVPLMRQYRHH

[5] = molecular target: panel of more than 300 wild-type and mutant kinases (313 kinase panel) (Homo sapiens, UniProt P53779)
panel of more than 300 wild-type and mutant kinases (313 kinase panel) (Homo sapiens, UniProt P53779), sequence (P53779 whole entry, change not shown): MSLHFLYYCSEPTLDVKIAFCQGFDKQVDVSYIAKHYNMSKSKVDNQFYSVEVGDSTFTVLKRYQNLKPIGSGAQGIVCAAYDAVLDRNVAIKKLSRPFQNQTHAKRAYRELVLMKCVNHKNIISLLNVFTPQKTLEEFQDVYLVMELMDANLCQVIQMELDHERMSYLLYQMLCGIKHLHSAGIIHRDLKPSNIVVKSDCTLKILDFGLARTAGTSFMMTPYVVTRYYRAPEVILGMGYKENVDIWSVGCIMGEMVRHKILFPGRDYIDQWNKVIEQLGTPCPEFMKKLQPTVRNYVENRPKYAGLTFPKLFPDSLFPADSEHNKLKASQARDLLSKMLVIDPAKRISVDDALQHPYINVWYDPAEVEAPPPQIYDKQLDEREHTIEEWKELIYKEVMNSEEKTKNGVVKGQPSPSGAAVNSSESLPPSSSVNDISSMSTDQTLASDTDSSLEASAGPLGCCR

[6] = molecular target: T2, panel of more than 300 wild-type and mutant kinases (313 kinase panel) (Homo sapiens, UniProt Q13976)
T2 sequence (Q13976 1-671): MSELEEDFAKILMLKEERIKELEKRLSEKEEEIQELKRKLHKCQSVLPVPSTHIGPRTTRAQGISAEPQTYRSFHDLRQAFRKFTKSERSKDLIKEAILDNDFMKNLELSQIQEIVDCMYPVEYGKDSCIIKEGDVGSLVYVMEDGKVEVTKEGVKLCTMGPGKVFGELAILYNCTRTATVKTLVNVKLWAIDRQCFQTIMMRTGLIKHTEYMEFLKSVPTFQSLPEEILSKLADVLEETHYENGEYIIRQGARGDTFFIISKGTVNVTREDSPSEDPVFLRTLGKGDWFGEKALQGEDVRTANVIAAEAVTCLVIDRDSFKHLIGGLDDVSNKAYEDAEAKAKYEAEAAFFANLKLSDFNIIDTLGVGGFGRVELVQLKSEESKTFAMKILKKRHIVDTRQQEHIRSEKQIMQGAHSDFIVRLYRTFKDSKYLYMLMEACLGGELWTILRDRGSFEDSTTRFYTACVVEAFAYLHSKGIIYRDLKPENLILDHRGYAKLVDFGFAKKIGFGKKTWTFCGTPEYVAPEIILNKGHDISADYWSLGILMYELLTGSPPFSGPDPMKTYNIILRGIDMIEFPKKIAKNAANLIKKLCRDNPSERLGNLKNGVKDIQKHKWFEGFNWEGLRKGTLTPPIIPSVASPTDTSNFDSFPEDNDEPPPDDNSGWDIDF

[7] = molecular target: panel of more than 300 wild-type and mutant kinases (313 kinase panel) (Homo sapiens, UniProt P23458)
[8] = molecular target: panel of more than 300 wild-type and mutant kinases (313 kinase panel) (Homo sapiens, UniProt P17948)
[9] = molecular target: panel of more than 300 wild-type and mutant kinases (313 kinase panel) (Homo sapiens, UniProt P10721, T670I)
panel of more than 300 wild-type and mutant kinases (313 kinase panel) (Homo sapiens, UniProt P10721, T670I), sequence (P10721 26-976 T670I): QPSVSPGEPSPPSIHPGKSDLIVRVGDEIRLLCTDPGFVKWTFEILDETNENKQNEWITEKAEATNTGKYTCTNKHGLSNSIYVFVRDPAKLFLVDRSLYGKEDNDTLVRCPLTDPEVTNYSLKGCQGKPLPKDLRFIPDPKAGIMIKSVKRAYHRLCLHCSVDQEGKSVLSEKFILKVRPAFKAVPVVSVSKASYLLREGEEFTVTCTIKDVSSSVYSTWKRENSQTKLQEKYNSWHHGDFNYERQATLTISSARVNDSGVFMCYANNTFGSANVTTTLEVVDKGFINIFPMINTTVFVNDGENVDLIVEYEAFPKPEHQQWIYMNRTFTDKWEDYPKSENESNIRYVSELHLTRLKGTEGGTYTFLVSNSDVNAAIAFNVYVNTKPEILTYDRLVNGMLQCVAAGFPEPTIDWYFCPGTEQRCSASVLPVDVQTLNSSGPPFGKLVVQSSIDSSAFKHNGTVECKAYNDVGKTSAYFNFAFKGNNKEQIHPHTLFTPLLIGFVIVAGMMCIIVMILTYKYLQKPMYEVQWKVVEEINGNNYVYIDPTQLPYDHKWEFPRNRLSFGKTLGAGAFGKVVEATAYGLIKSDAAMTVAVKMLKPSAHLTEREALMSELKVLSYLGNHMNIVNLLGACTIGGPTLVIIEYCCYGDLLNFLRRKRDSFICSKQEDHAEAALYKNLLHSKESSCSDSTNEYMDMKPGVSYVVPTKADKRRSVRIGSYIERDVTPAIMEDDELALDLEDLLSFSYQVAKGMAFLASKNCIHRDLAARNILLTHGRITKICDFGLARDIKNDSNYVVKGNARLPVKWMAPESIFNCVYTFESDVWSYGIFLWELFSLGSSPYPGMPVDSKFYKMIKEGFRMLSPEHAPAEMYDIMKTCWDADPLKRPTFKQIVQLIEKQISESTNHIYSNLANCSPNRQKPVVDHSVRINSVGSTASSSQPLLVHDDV

[10] = molecular target: panel of more than 300 wild-type and mutant kinases (313 kinase panel) (Homo sapiens, UniProt P51812)

panel of more than 300 wild-type and mutant kinases (313 kinase panel) (Homo sapiens, UniProt P16234), sequence (P16234 24-1089, change not shown): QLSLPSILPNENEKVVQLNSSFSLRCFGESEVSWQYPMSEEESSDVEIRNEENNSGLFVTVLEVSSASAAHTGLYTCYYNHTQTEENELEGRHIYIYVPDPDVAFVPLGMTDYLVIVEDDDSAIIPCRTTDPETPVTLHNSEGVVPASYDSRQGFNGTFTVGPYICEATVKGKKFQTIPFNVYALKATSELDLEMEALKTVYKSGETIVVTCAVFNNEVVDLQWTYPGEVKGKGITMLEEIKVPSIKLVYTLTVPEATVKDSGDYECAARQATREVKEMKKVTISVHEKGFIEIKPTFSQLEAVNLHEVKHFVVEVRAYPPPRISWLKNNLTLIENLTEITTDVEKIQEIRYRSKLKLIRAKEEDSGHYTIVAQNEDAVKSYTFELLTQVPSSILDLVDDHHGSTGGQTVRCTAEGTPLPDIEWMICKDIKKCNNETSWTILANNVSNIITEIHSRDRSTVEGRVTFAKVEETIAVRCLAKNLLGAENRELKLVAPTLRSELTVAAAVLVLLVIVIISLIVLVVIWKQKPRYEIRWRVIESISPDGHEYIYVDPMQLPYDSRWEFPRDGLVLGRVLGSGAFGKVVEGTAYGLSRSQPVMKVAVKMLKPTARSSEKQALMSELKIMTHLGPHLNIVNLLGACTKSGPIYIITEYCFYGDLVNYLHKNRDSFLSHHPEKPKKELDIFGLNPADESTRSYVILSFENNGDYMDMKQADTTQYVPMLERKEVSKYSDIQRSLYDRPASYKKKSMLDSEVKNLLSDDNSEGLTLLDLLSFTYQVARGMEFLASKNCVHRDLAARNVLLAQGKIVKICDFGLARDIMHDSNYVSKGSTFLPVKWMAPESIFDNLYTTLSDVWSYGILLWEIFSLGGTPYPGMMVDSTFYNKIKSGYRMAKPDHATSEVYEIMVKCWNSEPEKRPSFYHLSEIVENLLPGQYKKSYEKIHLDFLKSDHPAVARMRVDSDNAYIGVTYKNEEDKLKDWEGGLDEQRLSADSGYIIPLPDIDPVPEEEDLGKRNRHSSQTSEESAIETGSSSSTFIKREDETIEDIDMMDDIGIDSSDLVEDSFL

Row | Structure (SMILES) | %-inhibition of PDGFRα ([1]; kinase PDGFRα, 1 μM) | %-inhibition of QIK ([2]; kinase QIK, 1 μM) | %-inhibition of SGK2 ([3]; kinase SGK2, 1 μM) | %-inhibition of PAK5 ([4]; kinase PAK5, 1 μM) | %-inhibition of JNK3 ([5]; kinase JNK3, compound at 1 μM) | %-inhibition of PGK ([6]; kinase PGK, 1 μM) | %-inhibition of JAK1 ([7]; kinase JAK1, compound at 1 μM) | %-inhibition of FLT1 ([8]; kinase FLT1, compound at 1 μM) | %-inhibition of KIT(T670I) ([9]; kinase KIT(T670I), compound at 1 μM) | %-inhibition of RSK2 ([10]; kinase RSK2, 1 μM) | %-inhibition of PDGFRα ([1]; 1 µM) | %-inhibition of PGK ([6]; 1 µM) | %-inhibition of JAK1 ([7]; 1 µM) | %-inhibition of KIT(T670I) ([9]; 1 µM) | %-inhibition of QIK ([2]; 1 µM) | %-inhibition of SGK2 ([3]; 1 µM) | %-inhibition of PAK5 ([4]; 1 µM) | %-inhibition of JNK3 ([5]; 1 µM) | %-inhibition of FLT1 ([8]; 1 µM) | %-inhibition of RSK2 ([10]; 1 µM)
1 | COc1cc2nccc(Oc3ccc(NC(=O)C4(C(=O)Nc5ccc(F)cc5)CC4)cc3)c2cc1OC [cabozantinib] | 100% | 0.408% | -1.48% | -2.51% | -2% | -3% | -1.59% | 99% | 100% | -3.61% |  |  |  |  |  |  |  |  |  | 
2 | Cc1cn(-c2cc(NC(=O)c3ccc(C)c(Nc4nccc(-c5cccnc5)n4)c3)cc(C(F)(F)F)c2)cn1 [nilotinib] |  | -36% | 24% | 3.39% | 39% |  |  | 32% |  | 13% | 103% | -13% | 13% | 18% |  |  |  |  |  | 
3 | C#Cc1cccc(Nc2ncnc3cc(OCCOC)c(OCCOC)cc23)c1 [erlotinib] |  |  |  |  |  |  |  |  |  |  | 52% | 1.68% | 8% | 14% | 18% | 10% | -0.141% | 22% | 70% | 6.4%
